Experimental data from publication PMC6107127, “Characteristics of the mitochondrial and cellular uptake of MPP^+, as probed by the fluorescent mimic, 4'I-MPP^+” (PLoS ONE, 2018).
pIC50: −log10 of the molar value.

Key:
[1] = Relative HPLC elution times and hydrophobicities; format: physicochemical
[2] = tested on: rat brain mitochondrial complex-I (NADH: ubiquinone oxidoreductase); experiment: Ubiquinone dependent NADH oxidation (complex-I inhibition); format: biochemical; settings: 200 μM
Protocol: Isolated rat brain mitochondria were lysed by freeze-thawing in hypotonic media containing 25 mM K3PO4 and 5 mM MgCl2, pH 7.2 [22]. The complex-I (i.e. NADH: ubiquinone oxidoreductase) activity of mitochondrial membrane fragments were determined according to the procedure of Birch-Machin and Turnbull. Briefly, mitochondrial membranes (50 μg protein) were incubated with 130 μM NADH (final concentration) and Antimycine A (2 μg/mL) in a 1.0 mL assay solution containing 25 mM K3PO4, 5 mM MgCl2, 2 mM KCN, 2.5 mg/mL bovine serum albumin, pH 7.2, for 2 min at 37 °C with or without rotenone, MPP^+ or 4'I-MPP^+ (for further details see the corresponding figure legends). The complex-I mediated ubiquinone dependent NADH oxidation was initiated by adding ubiquinone-1 to a final concentration of 65 μM and the initial rates of the reactions were monitored by following the decrease in absorbance at 340 nm with respect to 425 nm reference wavelength for 5 min.

[3] = tested on: isolated MN9D cell mitochondria; experiment: Uptake into isolated MN9D cell mitochondria; design: species or system mouse; settings: 400 μM, 45 min at 37 °C
Protocol: Intact mitochondria were isolated from MN9D cells according to the published procedure of Frezza et al.. The isolated intact mitochondrial preparations were suspended in KCl buffer and aliquots (5 μL) were withdrawn for protein determination. Desired amounts of mitochondrial suspensions were incubated with 400 μM MPP^+ or 4'I-MPP^+ in KCl buffer for 45 min at 37 °C. After the incubation, incubates were centrifuged at 7,000 x g at 4 °C for 10 min and the mitochondrial pellets were treated with 75 μL of 0.1 M HClO4.

[4] = Solubility in incubation media; format: physicochemical; settings: concentrations above 200 μM
MN9D cells [5] = experiment: Cellular uptake of MPP+ and 4'I-MPP+ (HPLC-UV / fluorescence); format: cell-based, mouse; settings: 100 μM toxin, 60 min, 37 °C, KRB-HEPES
Protocol: Cells were seeded into 12-well plates at 0.25 x 10^6 cells/well and grown 2–3 days to about 70–80% confluency. The media was removed and a solution containing 100 μM MPP^+ or 4'I-MPP^+ in warm KRB-HEPES (or without Ca^2+ and with 1.4 mM EGTA) was added to each well and incubated at 37 °C for the desired period of time (see Figure legends for further details). After the incubations, the media were removed and cells were washed with ice-cold KRB-HEPES. Washed cells were suspended in 1.0 mL of ice-cold KRB-HEPES and 50 μL aliquots were withdrawn for protein determination. The remaining cell suspensions were centrifuged at 5000 x g at 4 °C for 5 min and the cell pellets were treated with 75 μL of 0.1 M HClO4. The coagulated proteins were pelleted by centrifugation at 13,200 x g at 4 °C for 8 min and the MPP^+ or 4'I-MPP^+ contents of the supernatants were determined by C18-reversed-phase HPLC-UV (HPLC-UV) as previously described using standard curves constructed from authentic standards. The standard curves for HPLC-UV quantifications were constructed using authentic samples of MPP^+ and 4'I-MPP^+ under the same HPLC-UV separation conditions (S1 Fig).
To quantify 4'I-MPP^+ uptake by fluorescence, MN9D or HepG2 cells grown in glass bottomed plates, washed, and reconstituted with KRB-HEPES (1.0 mL), pH 7.4, and mounted on the stage of a Nikon ECLIPSE Ti-S inverted fluorescence microscope. […]

MN9D cells [6] = experiment: MTT cell viability assay; format: cell-based; settings: Mus musculus, 16 h incubation
Protocol: Cell viability was determined by the MTT [3-(4,5-dimethylthiazol-2-yl)-2,5-diphenyltetrazolium bromide)] assay. Briefly, cells were seeded on 96-well plates and allowed to grow to about 70–80% confluence. Prior to the experiment, culture media was replaced with KRB-HCO3^- containing desired concentrations of MPP^+ or 4'I-MPP^+ and incubated for 16 h at 37 °C. After the incubation, 10 μL of 5 mg/mL MTT solution was added to each well and incubated for 2 h at 37 °C. The resulting formazan was solubilized by the addition of 210 μL detergent solution [50% DMF/H2O (v/v), 20% SDS (w/v)] followed by incubation at 37 °C for 12 h. The cell viabilities were determined by quantifying solubilized formazan by measuring the difference in the absorbance at 570 nm and 650 nm. Results were expressed as % viability of MPP^+ or 4'I-MPP^+ treated cells with respect to control cells, which were treated under the same conditions except in the absence of the MPP^+ or 4'I-MPP^+.

MN9D cells [7] = experiment: Intracellular ATP levels; format: cell-based, mouse; settings: 100 μM, 6 h at 37 °C
Protocol: Cells grown in 12-well plates were treated with 100 μM MPP^+ or 4'I-MPP^+ in KRB-HEPES for 6 h at 37 °C. After the treatments, cells were suspended in 1 mL of ice-cold KRB-HEPES and 50 μL samples were withdrawn for protein quantification. The remaining cell suspensions were centrifuged for 3 min at 3,500 x g at 4 °C and the cell pellets were treated with 1 mL of lysis buffer (0.1 M Tris, 1% Triton X-100, pH 7.5) for 2 min and centrifuged at 3,500 x g for 3 min to remove the cell debris. The ATP contents of the supernatants were measured using a fluorometric ATP assay kit (BioVision, Milpitas CA, USA) following the manufacture’s guidelines. All ATP levels were normalized to the protein content of each sample.

Question: With `C[n+]1ccc(-c2ccc(I)cc2)cc1` [4'I-MPP^+, 1-methyl-4-(4'-iodophenyl)pyridinium] as the compound, how does the “relative elution time (hydrophobicity)” value ([1]; Buffer:CH3CN 70:30) read?
Answer: 11.76

Question: And the “relative elution time (hydrophobicity)” value ([1]; Buffer:CH3CN:MeOH 60:30:10)?
Answer: 8.88

Question: And the “relative elution time (hydrophobicity)” value ([1]; Buffer:CH3CN:MeOH 65:25:10)?
Answer: 12.56

Question: What about the “inhibition of the complex-I activity” value [2] of the same compound?
Answer: 46%

Question: And the “rate of uptake into isolated mitochondria” value [3]?
Answer: faster than that of MPP^+

Question: And the “solubility in the incubation media” value [4]?
Answer: low solubility

Question: And the “cellular uptake in 1 h” value (MN9D cells [5])?
Answer: 1.2 nmoles/mg of protein

Question: What about the pIC50 (MN9D cells [6]) of the same compound?
Answer: ~4.40

Question: And the “effect on intracellular ATP levels” value (MN9D cells [7])?
Answer: deplete intracellular ATP levels
